The record followed here is the supplement of paper PMC11061612.

Common to all, as to test: combination Emax (second highest fraction inhibited in the dose matrix, 72 h); higher = more inhibition; extreme values may be limits of the assay
Assay [1] concerns CTV-1 (T-Lymphoblastic Leukemia). In short, it runs like this:
(§1)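 Cell lines in DMEM/F12 or RPMI with 10% FBS were plated in 1536-well plates, held 24 hours at 37°C, 5% CO2, then given two-drug dose matrices for 72 hours (DMSO typically 0.2%). Viability was read by CellTiter-Glo 2.0 luminescence and scaled as inhibition from 0 (vehicle wells) to 1 (blank wells). Combination Emax is the second-highest inhibition in the matrix; Bliss excess is observed combination effect minus expected EA + EB − EA·EB, EA and EB being single-agent effects.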

Assay [2] concerns DOV13 (Ovarian Carcinoma). In short, it runs like this:
as §1

Assay [3] has as its system EM-2 (Chronic Myelogenous Leukemia). Put shortly: as §1
Assay [4] deals with COR-L23 (Non-Small Cell Lung Carcinoma). In short, it runs like this: as §1
A further assay deals with CAL-78 (Chondrosarcoma). Put shortly: as §1
Assay [5] relates to DB (B-Cell Non-Hodgkin's Lymphoma). In short, it runs like this:
as §1

Assay [6] relates to MDA-MB-157 (Breast Carcinoma). In short, it runs like this:
as §1

For another assay, the system named is SK-N-FI (Neuroblastoma). Put shortly: as §1
Assay [7] has as its system TGBC24TKB (Biliary Tract Carcinoma). In short, it runs like this:
as §1

For assay [8], the system named is OCI-AML2 (Acute Myeloid Leukemia). Put shortly:
as §1

The test system of the next assay is NCI-H2595 (Mesothelioma). In short, it runs like this: as §1
In assay [9] the test system is SW1990 (Pancreatic Carcinoma). In short, it runs like this: as §1
For assay [10], the system named is MFH-ino (Other Solid Carcinomas). In short, it runs like this: as §1
In assay [11] the test system is HCC2157 (Breast Carcinoma). In short, it runs like this:
as §1

For assay [12], the system named is TE-5 (Esophageal Squamous Cell Carcinoma). Put shortly:
as §1

The test system of a further assay is DSH1 (Bladder Carcinoma). In short, it runs like this:
as §1

A further assay deals with J82 (Bladder Carcinoma). Put shortly: as §1
The test system of assay [13] is COR-L95 (Small Cell Lung Carcinoma). In short, it runs like this:
as §1

The test system of assay [14] is LS-513 (Colorectal Carcinoma). Put shortly: as §1
Assay [15] has as its system KARPAS-1106P (B-Cell Non-Hodgkin's Lymphoma). In short, it runs like this:
as §1

Molecules are shown by their SMILES.

With `COc1cccc2c1C(=O)c1c(O)c3c(c(O)c1C2=O)C[C@@](O)(C(=O)CO)C[C@@H]3O[C@H]1C[C@H](N)[C@H](O)[C@H](C)O1` [Doxorubicin] + Cc1cc2ncnn2cc1Nc1ncc2c(n1)n(C1CCOCC1)c(=O)n2C [AZD7648] (first compound max 1 µM, 7x7, partner max 10 µM), the “combination Emax” value was 1 in assay [1]; 0.914 in assay [2]; 0.978 in assay [3]; 0.432 in assay [4]; 0.542 in the assay with CAL-78 (Chondrosarcoma); 0.896 in assay [5]. Further, the “combination Emax” value in assay [6] turned out to be 0.805; with SK-N-FI (Neuroblastoma) it was 0.373; in [7], 0.318; in [8], 1; in the assay on NCI-H2595 (Mesothelioma), 0.531; in [9], 0.303. For the same compound, the “combination Emax” value in [10] amounted to 0.608; in assay [11], 0.925; in assay [12], 0.678; in the assay with DSH1 (Bladder Carcinoma) it was 0.86; with J82 (Bladder Carcinoma) it was 0.41; in assay [13], 0.865. In addition, the “combination Emax” value in [14] was found to be 0.617; in [15] it was 0.988.

As to `CN(CCO)CC[C@H](CSc1ccccc1)Nc1ccc(S(=O)(=O)NC(=O)c2ccc(N3CCC([C@@H](O)c4ccccc4-c4ccc(Cl)cc4)CC3)cc2)cc1S(=O)(=O)C(F)(F)F` [AZD4320] + Cc1cc2ncnn2cc1Nc1ncc2c(n1)n(C1CCOCC1)c(=O)n2C [AZD7648] (first compound max 1 µM, 7x7, partner max 10 µM), the “combination Emax” value was found to be 0.315 in assay [1]; 0.779 in assay [2]; 0.99 in assay [3]; 0.0958 in assay [4]; 0.46 in the assay with CAL-78 (Chondrosarcoma); 0.976 in [5]. In addition, the “combination Emax” value in [6] stood at 0.0975; with SK-N-FI (Neuroblastoma) it was 0.201; in [7], 0.682; in assay [8], 1; in the assay with NCI-H2595 (Mesothelioma), 0.12; in assay [9] it was 0.0867. The “combination Emax” value turned out to be 0.161 in [10]; 0.959 in assay [11]; 0.531 in assay [12]; 0.586 in the assay on DSH1 (Bladder Carcinoma); 0.0607 in the assay on J82 (Bladder Carcinoma); 1 in [13]. The “combination Emax” value in [14] amounted to 0.155; in [15], 0.313.

Regarding `CCc1c2c(nc3ccc(O)cc13)-c1cc3c(c(=O)n1C2)COC(=O)[C@]3(O)CC` [SN-38] + CN(C)CCCOc1ccc(-c2ccc3ncc4c(c3c2)n(C2CCOCC2)c(=O)n4C)cn1 [AZD0156] (first compound max 0.3 µM, 7x7, partner max 1 µM), the “combination Emax” value was 1 in [1]; 0.936 in assay [2]; 0.985 in assay [3]; 0.686 in assay [4]; 0.587 in the assay on CAL-78 (Chondrosarcoma); 0.97 in assay [5]. Also, the “combination Emax” value came out at 0.742 in assay [6]; 0.669 with SK-N-FI (Neuroblastoma); 0.533 in assay [7]; 1 in assay [8]; 0.176 in the assay on NCI-H2595 (Mesothelioma); 0.525 in assay [9]. For the same compound, the “combination Emax” value in assay [10] was found to be 0.812; in [11] it was 0.969; in assay [12], 0.796; with DSH1 (Bladder Carcinoma), 0.904; with J82 (Bladder Carcinoma) it was 0.784; in [13], 0.789. For the same compound, the figures for the “combination Emax” value in [14] and in assay [15] were 0.526 and 0.901, respectively.

Take `CC(=O)c1c(C)c2cnc(Nc3ccc(N4CCNCC4)cn3)nc2n(C2CCCC2)c1=O` [Palbociclib] + CC1(C)CCC(CN2CCN(c3ccc(C(=O)NS(=O)(=O)c4ccc(NCC5CCOCC5)c([N+](=O)[O-])c4)c(Oc4cnc5[nH]ccc5c4)c3)CC2)=C(c2ccc(Cl)cc2)C1 [Venetoclax] (first compound max 10 µM, 7x7, partner max 1 µM): the “combination Emax” value in assay [1] amounted to 0.921; in assay [2], 0.752; in assay [3], 0.287; in assay [4] it was 0.106; with CAL-78 (Chondrosarcoma), 0.278; in [5], 0.962. Moreover, the “combination Emax” value in [6] amounted to 0.115; in the assay on SK-N-FI (Neuroblastoma), 0.213; in [7], 0.274; in [8], 1; with NCI-H2595 (Mesothelioma) it was 0.104; in assay [9], 0.143. The “combination Emax” value came to 0.219 in [10]; 0.601 in assay [11]; 0.0622 in assay [12]; 0.439 with DSH1 (Bladder Carcinoma); 0.237 in the assay on J82 (Bladder Carcinoma); 0.709 in assay [13]. The “combination Emax” value in assay [14] worked out at 0.648; in assay [15], 0.599.

For the compound `C=CCn1c(=O)c2cnc(Nc3ccc(N4CCN(C)CC4)cc3)nc2n1-c1cccc(C(C)(C)O)n1` [AZD1775] + O=C(c1cc(Cc2n[nH]c(=O)c3ccccc23)ccc1F)N1CCN(C(=O)C2CC2)CC1 [Olaparib] (first compound max 1 µM, partner max 10 µM), the “combination Emax” value in assay [1] is 0.977; in assay [2], 0.802; in assay [3], 0.938; in [4] it was 0.224; with CAL-78 (Chondrosarcoma), 0.446; in assay [5], 0.912. The “combination Emax” value worked out at 0.723 in [6]; 0.715 with SK-N-FI (Neuroblastoma); 0.687 in assay [7]; 0.992 in assay [8]; 0.179 in the assay on NCI-H2595 (Mesothelioma); 0.404 in [9]. Moreover, the “combination Emax” value turned out to be 0.413 in assay [10]; 0.892 in assay [11]; 0.411 in assay [12]; 0.369 with DSH1 (Bladder Carcinoma); 0.195 in the assay on J82 (Bladder Carcinoma); 0.639 in assay [13]. Further, the results for the “combination Emax” value in [14] and in assay [15] were 0.827 and 0.872, respectively.

For the compound `Cc1cc2ncnn2cc1Nc1ncc2c(n1)n(C1CCOCC1)c(=O)n2C` [AZD7648] + CCN(CCO)CCCOc1ccc2c(Nc3cc(CC(=O)Nc4cccc(F)c4)[nH]n3)ncnc2c1 [AZD2811] (first compound max 10 µM, 7x7, partner max 1 µM), the “combination Emax” value came to 0.375 in [1]; 0.426 in [2]; 0.878 in assay [3]; 0.0476 in assay [4]; 0.335 with CAL-78 (Chondrosarcoma); 0.601 in assay [5]. Besides, the “combination Emax” value in assay [6] was 0.234; in the assay with SK-N-FI (Neuroblastoma), 0.274; in [7], 0.566; in assay [8], 0.702; in the assay with NCI-H2595 (Mesothelioma), 0.203; in assay [9], 0.201. For the same compound, the “combination Emax” value in [10] worked out at 0.415; in assay [11] it was 0.783; in [12], 0.394; in the assay on DSH1 (Bladder Carcinoma) it was 0.362; in the assay with J82 (Bladder Carcinoma), 0.126; in assay [13], 0.256. Moreover, the entries for the “combination Emax” value in assay [14] and in assay [15] were 0.507 and 0.526, respectively.

Regarding `COc1cccc(OCCCN)c1-c1cc(Nc2cnc(C#N)cn2)n[nH]1` [Prexasertib] + O=C(c1cc(Cc2n[nH]c(=O)c3ccccc23)ccc1F)N1CCN(C(=O)C2CC2)CC1 [Olaparib] (first compound max 1 µM, 7x7, partner max 10 µM), the “combination Emax” value in assay [1] was 0.821; in assay [2], 0.962; in [3] it was 1; in assay [4], 0.657; with CAL-78 (Chondrosarcoma), 0.565; in [5], 0.687. Further, the “combination Emax” value in assay [6] was determined as 0.938; in the assay on SK-N-FI (Neuroblastoma), 0.889; in assay [7], 0.835; in assay [8], 1; in the assay with NCI-H2595 (Mesothelioma) it was 0.23; in [9], 0.696. Further, the “combination Emax” value in [10] stood at 0.45; in assay [11] it was 0.967; in assay [12] it was 0.521; in the assay with DSH1 (Bladder Carcinoma) it was 0.688; in the assay on J82 (Bladder Carcinoma) it was 0.462; in assay [13] it was 0.682. The figures for the “combination Emax” value in assay [14] and in [15] were 0.781 and 0.897, respectively.
